`CC(=O)Nc1nc2c(Oc3cc(-c4ccc(C(F)(F)F)cc4NCC4CCCCC4)ncn3)cccc2s1`: the melting point – broadly, the temperature, or range, at which the solid turns liquid – was in the range of 232 to 234 °C.

Consider `CCCCc1nc2c(N)nc3ccc(OCCC4CCN(S(C)(=O)=O)CC4)cc3c2n1C`, for which the melting point was 198 to 200 °C.

Compound `CC(C)n1nc(C(=O)O)c2ccccc21` gave a melting point of 160 to 163 °C.

`CC1CC2C3CCC4=CC(=O)CCC4(C)C3(F)C(O)CC2(C)C1C(=O)CC#N` (stereo not drawn) displayed a melting point of 224 °C.

For `CON=C(C)C(C)=NOc1ccccc1C(=NOC)C(=O)OC`, the melting point is 93 to 94 °C.

The compound `COC1(c2ccc(Sc3ccc(C(=O)c4c(F)c(F)c(F)c(F)c4F)cc3)s2)CCOCC1` showed a melting point of 93 to 94 °C.

In the case of `CC(C)C(=O)NC[C@@H]1CN2C(=O)C[C@H]2O1` (racemic), the melting point lay within 76 to 77 °C.

For `CN(C)S(=O)(=O)c1ccc(O)c(O)c1`, the melting point was 142 °C.

For `CCCn1c(=O)c2c(nc(/C=C/c3ccc(Cl)c(Cl)c3)n2C)n(CCC)c1=O`, the melting point lay within 125 to 136 °C.

The compound `O=C(O)Cc1oc2ccc(Cl)cc2c1-c1ccccc1` showed a melting point of 194 to 195 °C.

With `Cc1onc(-c2ccc(Br)cc2)c1-c1ccc(S(N)(=O)=O)cc1`, the melting point is 152 to 153 °C.

In turn, `O=CN(Cn1cc(Cl)cnc1=O)c1ccccc1` came in with a melting point of 200 °C.

Compound `O=C1COc2cc(F)c(N3C(=O)C4=C(CCCC4)C3=O)cc2N1Cc1ccccn1` displayed a melting point of 188 to 190 °C.

For `CCCCc1cn(CCc2cccs2)c(=O)n1Cc1ccc(-c2ccccc2-c2nnn[nH]2)nc1`, the melting point lay in the range of 137 to 138 °C.

As for `CN(c1cccc2cc(-c3nccs3)[nH]c12)S(=O)(=O)c1ccsc1C(N)=O`, the melting point was 269 °C.

With `CCCCCCCCCCCCCCCCCCOC(=O)Nc1ccc(NC(=O)NS(=O)(=O)c2ccc3ccccc3c2)cc1`, the melting point came to 178 °C.

Turning to `CSc1nnc(-c2ccc3occ(-c4cccc(OC(F)(F)F)c4)c3c2)o1`, the melting point lay in the range of 113 to 114 °C.

In the case of `O=C(O)C1=Cc2cc(Cl)ccc2N(Cc2ccc([N+](=O)[O-])cc2)C1C(F)(F)F` (stereo not drawn), the melting point was in the range of 225 to 228 °C.

`CN(C)c1ccc(C2N(c3ccccc3)CCN2c2ccccc2)c(O)c1` registered a melting point of 161 to 165 °C.

As for `Cc1c(F)cc(C(=O)NCC2CC2)cc1-c1ccc(C(=O)NCC(C)(C)C)cc1C(=O)Nc1nccs1`, the melting point is 179 to 183 °C.

Take `O=C(O)CS(=O)(=O)c1ccc2c(-c3ccccc3F)noc2c1`: the melting point lay within 168 to 169 °C.

Compound `CCONC(=O)c1cccc(NC(C)=C2C(=O)OC(=O)C(C(C)=O)=C2O)c1` gave a melting point of 162 to 164 °C.

For the compound `CC(C)(C)C(=O)C(Cl)C(=O)Nc1ccccc1` (stereo not drawn), the melting point was determined as 154 °C.

The compound `Nc1ccc(N2CCc3ccncc3C2)cc1` had a melting point greater than 220 °C.

For the compound `CCOC(=O)C(=O)Nc1cc(Br)c2ccccc2c1NC(=O)C(=O)OCC`, the melting point came to 164 °C.

As to `CC(=O)OCCCc1c(C)[nH]c(C(=O)OC(C)(C)C)c1C`, the melting point turned out to be 73 °C.

Take `O=C(CNC(=O)c1ccc(C2=NOC(c3cc(Cl)cc(C(F)(F)F)c3)(C(F)(F)F)C2)c2ccccc12)NCC(F)(F)F` (stereo not drawn): the melting point was 107 to 108 °C.

Consider `COc1cncnc1N1CCN(CCCc2csc3ccc(C(N)=O)cc23)CC1`, for which the melting point fell in the range of 169 to 170 °C.

For the compound `Nc1ccccc1NCCO`, the melting point lay within 105 to 106 °C.

`COc1ccc(-c2[nH]nc3c2C(=O)c2c(NC(=O)CN4CCN(CCN)CC4)cccc2-3)cc1`: the melting point was greater than 300 °C.

For the compound `COC(=O)CCc1ccc(CCNC(=O)c2cc(Cl)ccc2OC)cc1`, the melting point was in the range of 58 to 61 °C.

In the case of `O=[N+]([O-])c1ccc(C(Cl)=NNc2ccccc2)c(Cl)c1`, the melting point lay in the range of 124 to 126 °C.

`O=C(O)c1cccc(Nc2ccc(-c3ccoc3)cc2[N+](=O)[O-])c1` displayed a melting point of 203 to 205 °C.

Consider `c1cc2c(N3CCNCC3)csc2cn1`, for which the melting point fell in the range of 126 to 128 °C.

On to `Cc1nc2c(OCc3c(Cl)ccc(N(C)C=O)c3Cl)cccn2c1Br`, for which the melting point is 207 to 209 °C.

`Cc1cccc(N(c2ccccc2)c2ccc(N(c3ccccc3)c3cccc(C)c3)cc2)c1` gave a melting point of 170 to 171 °C.

On to `O=c1cc2c(nn1-c1ccc(Cl)cc1)-c1cnccc1CC2`, for which the melting point is 166 to 168 °C.

`Cn1nc(-c2nc(C#N)c(N)nc2-c2ccccc2)ccc1=O` gave a melting point greater than 250 °C.

Regarding `O=C(Nc1ccc(C(=O)N2CCc3cn[nH]c3-c3ccccc32)cn1)c1ccccc1-c1ccccc1`, the melting point is 228 to 234 °C.

Compound `OC(CN1CCN(c2ccncc2)CC1)c1ccc2nonc2c1` (stereo not drawn) registered a melting point of 159 to 162 °C.

On to `O=C(O)c1ccc(Sc2ccccc2)cc1`, for which the melting point lay within 101 to 103 °C.

Compound `CN1C(=O)CCC2(C)c3ccc(Sc4ccncc4)cc3CCC12` (single isomer, unassigned; (+)) displayed a melting point of 157 to 158 °C.

The compound `Cc1ccc2nc(S)oc2c1` gave a melting point of 209 °C.

`CC(=O)Nc1cc(O)c(C(=O)CCCCl)cc1Cl` yielded a melting point of 103 to 106 °C.

Regarding `CCCC(=O)c1cnc2c(C)cccc2c1Nc1cc(OC)ccc1OC`, the melting point lay in the range of 115 to 116 °C.

On to `COC(=O)CCn1c(C(=O)O)cc2ccccc21`, for which the melting point was 118 to 120 °C.

`CCN(CC)C(=O)n1cnc(Sc2cc(F)c(C#N)cc2F)n1` showed a melting point of 80 °C.

The compound `CCCCOCCOc1ccc(-c2ccc3c(c2)C=C(C(=O)Nc2ccc(SCc4nncn4CCC)c(C(F)(F)F)c2)CCN3CC(C)C)cc1` registered a melting point of 131 to 133 °C.

Compound `CS(=O)(=O)c1cccc(CNC(=O)c2nc3scc(COCc4ccc(C(=O)O)cc4)c3c(=O)[nH]2)c1` gave a melting point of 265 to 267 °C.

Compound `CC12CCC3c4ccc(OC(=O)Cc5ccccc5)cc4CCC3C1CCC2=O` (stereo not drawn) showed a melting point of 114 to 116 °C.

With `CNC(=O)Cn1c(-c2ccccn2)nc2cccnc21`, the melting point lay in the range of 228 to 230 °C.

Compound `COC(=O)c1nc2cc(OC)ccc2c(O)c1C(=O)OC` displayed a melting point of 202 to 204 °C.

`Fc1cc(F)c2[nH]c(-c3ccccc3)c(CCN3CCCCC3)c2c1` registered a melting point of 185 to 187 °C.

On to `COc1ccc(CC#N)c2c1OCCO2`, for which the melting point is 121 to 125 °C.

`OC1(c2ccc3c(c2)OCO3)CCN(CCc2ccccc2)CC1` came in with a melting point of 123 to 125 °C.

In turn, `O=c1[nH]c2ccc3ccc(-n4cccc4CN4CCN(Cc5ccccc5)CC4)cc3c2[nH]c1=O` came in with a melting point greater than 250 °C.

For the compound `CCOCc1nc2c(N)nc3c(c2n1NCCCNC(=O)NC(C)C)CCCC3`, the melting point lay in the range of 185 to 187 °C.

The compound `COc1cc(C(=O)Nc2ccccc2C(c2ccc(O)cc2)c2ccc(O)cc2)ccc1[N+](=O)[O-]` showed a melting point of 129 to 131 °C.

In the case of `OC(Cn1cncn1)(c1ccc(F)cc1F)C(F)(F)SC1CC1` (stereo not drawn), the melting point was 99 to 102 °C.

The compound `COc1ccc(C(=O)CCCCCN2CCC(CNC(=O)c3cc(Cl)c(N)cc3OC)CC2)cc1` registered a melting point of 133 to 135 °C.

On to `CCCNc1c2c(nc3ccccc13)CCCC2O` (stereo not drawn), for which the melting point worked out at 164 °C.

In turn, `Cc1ccc(OCc2ccccc2)c2[nH]c(CCc3ccccc3)nc12` returned a melting point of 203 to 204 °C.

Compound `COc1nc(S(C)(=O)=O)cnc1NS(=O)(=O)c1cccc(Cl)c1Cl` had a melting point of 237 to 238 °C.

Regarding `CS(=O)(=O)CCCOc1ccc(/C=C/C(=O)O)c(Oc2ncc(C(F)(F)F)cc2Cl)c1`, the melting point was in the range of 202 to 203 °C.

Take `Nc1ccc(-c2ncon2)cc1`: the melting point lay in the range of 97 to 100 °C.

`CCCCCC(C)N(Cc1ccc(C(C)(C)C)cc1)C(Nc1ccc(OC)cc1OC)=C1C(=O)COC1=O` (stereo not drawn) registered a melting point of 115 to 117 °C.

The compound `CCOC(=O)c1cc(Br)cc2c(=O)cc(-c3cccc(OCc4nc5ccccc5s4)c3)oc12` displayed a melting point of 250 to 251 °C.

On to `COc1ccc(Nc2cccc(Cl)c2N)cc1`, for which the melting point fell in the range of 65 to 66 °C.

Turning to `O=C1c2c(ccc(F)c2Cl)-n2cnc(-c3noc(CCl)n3)c2[C@@H]2CCN12`, the melting point fell in the range of 214 to 217 °C.

In the case of `O=C(O)c1cc2c(-c3ccccc3)n[nH]c2s1`, the melting point is greater than 260 °C.

In turn, `O=C(CCCCCN1CCN(c2cccc(C(F)(F)F)c2)CC1)N1Cc2ccc(C3=NCCO3)cc2C1` registered a melting point of 129 °C.

The compound `Cc1ccc2c(c1)C(=O)C(=O)N2CCCN(C(C)C)C(C)C` had a melting point of 87 to 89 °C.

Regarding `CCOC(=O)Nc1cccc(C(=O)CBr)c1`, the melting point is 108 to 110 °C.

In the case of `Cc1ccccc1NS(=O)(=O)c1ccc(N2CCNC2=O)cc1`, the melting point was in the range of 209 to 210 °C.

In turn, `Cn1c(C(F)(F)F)ccc(-c2cc([N+](=O)[O-])c(F)cc2F)c1=O` displayed a melting point of 115 to 118 °C.

`COC1(c2cc(F)cc(OCc3ccc(N(C)S(C)(=O)=O)c(Cl)c3)c2)CCOCC1` returned a melting point of 126 to 128 °C.

`C=CCOc1cc(O)c(C#N)c(Cl)c1` returned a melting point of 175 to 176 °C.

Regarding `C=Cc1ccc(CP(=O)(C(=O)c2c(C)cc(C)cc2C)C(=O)c2c(C)cc(C)cc2C)cc1`, the melting point worked out at 208 °C.

Turning to `OCc1csc(-c2ccccc2)c1`, the melting point lay within 92 to 93 °C.

On to `CCC(=O)N(CC)c1cccc(-c2ccnc3c(C(=O)c4ccccc4)cnn23)c1`, for which the melting point lay in the range of 194 to 195 °C.

For the compound `CCC(=O)N1CCC(=NO)c2cc(F)ccc21`, the melting point lay in the range of 126 to 128 °C.

Consider `Cc1c(C)c(O)c([N+](=O)[O-])c(C)c1O`, for which the melting point was in the range of 105 to 106 °C.

For `CCCc1c(Cl)oc2ccc(I)cc2c1=O`, the melting point lay within 103 to 105 °C.

In turn, `Cc1occ(-c2ccccc2F)c1C(=O)Nc1cccc(CO)c1` came in with a melting point of 163 to 164 °C.

`Cc1cnc2c(C#N)cnn2c1-c1ccc(Cl)cc1` yielded a melting point of 154 to 157 °C.

With `Cc1cc2c(N)c([N+](=O)[O-])cnc2s1`, the melting point is 238 to 240 °C.

Turning to `CC(=O)C=Cn1sc(Cl)cc1=O`, the melting point lay in the range of 137 to 139 °C.

As for `Fc1cc(CC2(Cc3ccnc(F)c3)c3ccccc3-c3ncncc32)ccn1`, the melting point was 171 to 174 °C.

Source of the values: a melting point compilation (Tetko et al.; mined from patent text by program, amines drawn as free bases though some values may be those of a salt).
